Data as given in patent publication US11202751B2, “Whitening cosmetic composition comprising Caragana sinica root extract” (CELLTRION, INC., priority 2015, dated 2021).
pIC50: −log10 of the molar value.

Tests used:
[1] = system: tyrosinase, isolated and refined from a mushroom; test: Tyrosinase activity inhibition (absorbance at 475 nm, L-tyrosine substrate); type: biochemical
Experimental: A tyrosinase is an enzyme that promotes an oxidization process of a substance called tyrosine in vivo to produce a melanin. […] After that, 0.5 ml of a resulting L-tyrosine solution was inserted into a test tube, after which 0.5 ml of a sample fluid of the above Caragana Sinica root extract and the fraction thereof was added thereto, such that the test tube of a resulting mixture was left alone in a 37° C. constant temperature chamber for 10 minutes. […] The reaction was stopped by placing the test tube containing that reaction solution on ice to be rapidly cooled down, after which an absorbance of the resulting product was measured with a spectrophotometer at a wavelength of 475 nm. Control group was one containing 0.5 ml of a buffer solution instead of the Caragana Sinica root extract, and the comparison target was arbutin, well-known as a skin whitening agent. At that time, an inhibition rate of tyrosinase activity (%) was calculated according to the following Mathematical formula 1, wherein results thereof were shown in the following Table 2. [formula] [formula]

[2] = system: B16F1 melanin-forming cell; test: Melanin production inhibition in B16F1 melanin-forming cells; type: cell-based; conditions: Mus musculus, B16-F1, 72 hours, read-out: Inhibition rate of melanin production (%)
Text: In order to confirm a whitening effect of the ethanol extract of Caragana Sinica root and the fraction thereof prepared in the above Examples 1 to 5, its effect on inhibiting a production of melanin was confirmed with regard to a B16F1 melanin-forming cell.
Specifically, the B16F1 melanin-forming cells, as a mouse-derived cell line, were obtained from American Type Culture Collection (ATCC) to use. The B16F1 melanin-forming cells were divided into a 6-well plate at a concentration of 2×10^5 per well, after which the cells were attached thereto, thus being divided at such a concentration as not to cause toxicity. […] After this 72-hour cultivation, the cells were taken off by trypsin-EDTA, after which the number of cells was measured, and then cells were collected by centrifugation. A quantification of melanin in cells was performed in such a way that modifying method of Lotan (Cancer Res., 40: 3345-3350, 1980). […] 1N NaOH (10% DMSO) was added to a cell lysate obtained through centrifugation (3,000 rpm, 10 minutes) so as to dissolve the extracted melanin, after which an absorbance of the melanin was measured by microplate reader at 405 nm, and the melanin was quantified to measure an inhibition rate of melanin production (%) of a sample. […]

[3] = system: B16F1 melanin-forming cell; test: Inhibition of α-MSH-induced melanin production in B16F1 cells; type: cell-based, mouse; conditions: for pIC50: B16F1, 70 to 74 hours
Experimental: Specifically, the B16F1 melanin-forming cells, as a mouse-derived cell line, were obtained from American Type Culture Collection (ATCC) to use. The B16F1 melanin-forming cells were divided into a 6-well plate at a concentration of 2×10^5 per well, after which the cells were attached thereto, thus being divided at such a concentration as not to cause toxicity. After that, the ethanol extract of Caragana Sinica root and the fraction thereof obtained from the above Examples 1 to 5 were treated at each concentration, and then being cultured for 72 hours. After this 72-hour cultivation, the cells were taken off by trypsin-EDTA, after which the number of cells was measured, and then cells were collected by centrifugation. A quantification of melanin in cells was performed in such a way that modifying method of Lotan (Cancer Res., 40: 3345-3350, 1980). A cell pallet was washed once with PBS, after which 1 ml of a homogenization buffer solution (50 mM sodium phosphate, pH6.8, 1% Triton X-100, 2 mM PMSF) was added thereto and swirled for 5 minutes to crush the cells. 1N NaOH (10% DMSO) was added to a cell lysate obtained through centrifugation (3,000 rpm, 10 minutes) so as to dissolve the extracted melanin, after which an absorbance of the melanin was measured by microplate reader at 405 nm, and the melanin was quantified to measure an inhibition rate of melanin production (%) of a sample. The inhibition rate of melanin production (%) of the B16F1 melanin-forming cell was calculated according to the following [Mathematical formula 2], wherein results thereof were indicated at Table 3.
In order to confirm whitening effect of α-viniferin isolated from the fraction of Caragana Sinica root of the above Example 4, its effect on inhibiting a production of melanin was confirmed with regard to a B16F1 melanin-forming cell.
Specifically, the α-viniferin isolated from the ethyl acetate fraction of the ethanol extract of Caragana Sinica root obtained from the above Example 4 or arbutin, and α-MSH, a stimulant of melanin production, were treated at the same time, after which an amount of melanin was measured in 70 to 74 hours later as describe in the above Example 2-2.

[4] = Stability of isolated α-viniferin at 50° C. (HPLC content); type: physicochemical; conditions: for content by HPLC / content relative to initial: 50° C.
Experimental: In order to confirm a stability of α-viniferin, the α-viniferin isolated from the ethyl acetate fraction of the ethanol extract of Caragana Sinica root obtained from the above Experimental Example 1 was stored under a condition of 50° C. for 2 weeks, after which content changes thereof were observed through an HPLC analysis by the same method of the above Experimental Example 1. A control group was kobophenol A isolated from the Caragana Sinica root extract, which was stored under the same condition with that of the α-viniferin, after which content changes thereof were observed by the same method.

| Inhibition rate of tyrosinase activity (%) ([1]; sample concentration 0.05%) | Inhibition rate of tyrosinase activity (%) ([1]; sample concentration 0.1%) | Inhibition rate of tyrosinase activity (%) ([1]; sample concentration 0.2%) | pIC50 ([3]; Mus musculus, B16-F1) | content change at high temperature (in words) ([4]; 50° C. for 2 weeks) | content by HPLC ([4]; 1 week) [ppm] | content relative to initial ([4]; 1 week) [%] | content by HPLC ([4]; 2 weeks) [ppm] | content relative to initial ([4]; 2 weeks) [%] | content by HPLC ([4]; Initial) [ppm] | Compound | inhibition at 100 µg/mL ([2]; 100 μg/ml) [%] | inhibition at 200 µg/mL ([2]; 200 μg/ml) [%] | inhibition at 100 µM ([3]; Mus musculus, B16-F1, 100 μM, read-out: inhibition rate of melanin production induced by α-MSH) [%] | inhibition at 200 µM ([3]; Mus musculus, B16-F1, 200 μM, read-out: inhibition rate of melanin production induced by α-MSH) [%] | inhibition at 400 µM ([3]; Mus musculus, B16-F1, 400 μM, read-out: inhibition rate of melanin production induced by α-MSH) [%] | inhibition at 4 µM ([3]; Mus musculus, B16-F1, 4 μM, read-out: inhibition rate of melanin production induced by α-MSH) [%] | inhibition at 6 µM ([3]; Mus musculus, B16-F1, 6 μM, read-out: inhibition rate of melanin production induced by α-MSH) [%] | inhibition at 8 µM ([3]; Mus musculus, B16-F1, 8 μM, read-out: inhibition rate of melanin production induced by α-MSH) [%] | whitening effect on α-MSH-induced melanin production, times higher than that of arbutin ([3]; ratio of IC50 values vs arbutin) |
| --- | --- | --- | --- | --- | --- | --- | --- | --- | --- | --- | --- | --- | --- | --- | --- | --- | --- | --- | --- |
| 21.2 | 38.4 | 78.7 | 3.62 |  |  |  |  |  |  | OC[C@H]1O[C@@H](Oc2ccc(O)cc2)[C@H](O)[C@@H](O)[C@@H]1O [Arbutin, arbutin] | 63.5 | 75.7 | 13 | 44 | 73 |  |  |  |  |
|  |  |  | 5.15 | not decreased | 249.60 | 98.7 | 253.45 | 100.3 | 252.8 | Oc1ccc(C2Oc3cc(O)cc4c3[C@@H]2c2cc(O)cc3c2C(c2cc(O)cc5c2[C@@H]4[C@H](c2ccc(O)cc2)O5)[C@H](c2ccc(O)cc2)O3)cc1 (stereo partly drawn) [α-viniferin] |  |  |  |  |  | 8 | 21 | 63 | about 35 times |
|  |  |  |  |  | 115.6 | 95.2 | 103.6 | 85.3 | 121.4 | kobophenol A |  |  |  |  |  |  |  |  |  |
